Laboratory results taken from article PMC9447987, “Long-term memory CD8^+ T cells specific for SARS-CoV-2 in individuals who received the BNT162b2 mRNA vaccine” (Nature Communications, 2022).
Like-named read-outs stand apart in the source and are kept apart here.

Tests used:
[1] = molecular target: HLA-A*24:02 (Homo sapiens, UniProt P04439, D101N/D140Y/D185E/E176V/E190D/F33S/G103R/G107R/I119L/I121M/I306V/K335N/L105A/L180Q/L300P/N151K/N90K/Q86E/Q94H/R106L/R138H/R89G/T104I/T345S/V100E/W191G/Y123F); assay: HLA stabilization assay using RMA-S-A2402 cells; format: binding; details: for MFI, HLA-A2402 (APC), representative staining: RMA-S-A2402 cells
[2] = system: HLA-A*24:02-restricted CD8+ T cells; format: cell-based, human; details: for Freq of responder (%): of 17 vaccinated HLA-A*24:02+ individuals (Fig. 4b); for Resp: number of responders (individuals with epitope-specific CD8+ T cells): of 17 vaccinated HLA-A*24:02+ individuals, 1 μM peptide
[3] = Suppl. Fig. 3b (for Fig. 4a, 4b), peptide(-) 14.8, 26 °C (Maximum) 32.7
[4] = convalescent donor C2, 45.290 weeks since PCR-confirmed diagnosis, peptide-pulsed C1R-A2402
[5] = convalescent donor C3, 2.430 weeks since PCR-confirmed diagnosis, peptide-pulsed C1R-A2402
[6] = convalescent donor C4, 35.000 weeks since PCR-confirmed diagnosis, peptide-pulsed C1R-A2402
[7] = convalescent donor C5, 41.430 weeks since PCR-confirmed diagnosis, peptide-pulsed C1R-A2402
[8] = convalescent donor C6, 20.000 weeks since PCR-confirmed diagnosis, peptide-pulsed C1R-A2402
[9] = convalescent donor C7, 21.710 weeks since PCR-confirmed diagnosis, peptide-pulsed C1R-A2402
[10] = convalescent donor C8, 47.860 weeks since PCR-confirmed diagnosis, peptide-pulsed C1R-A2402
[11] = convalescent donor C9, 21.860 weeks since PCR-confirmed diagnosis, peptide-pulsed C1R-A2402
[12] = convalescent donor C10, 24.570 weeks since PCR-confirmed diagnosis, peptide-pulsed C1R-A2402
[13] = convalescent donor C11, 24.290 weeks since PCR-confirmed diagnosis, peptide-pulsed C1R-A2402
[14] = vaccinated donor V1, 19.000 weeks since 2nd dose, C1R-A2402 pre-pulsed with 1 μM peptide
[15] = vaccinated donor V2, 9.570 weeks since 2nd dose, C1R-A2402 pre-pulsed with 1 μM peptide
[16] = vaccinated donor V4, 10.430 weeks since 2nd dose, C1R-A2402 pre-pulsed with 1 μM peptide
[17] = vaccinated donor V5, 10.570 weeks since 2nd dose, C1R-A2402 pre-pulsed with 1 μM peptide
[18] = vaccinated donor V6, 9.570 weeks since 2nd dose, C1R-A2402 pre-pulsed with 1 μM peptide
[19] = vaccinated donor V7, 10.140 weeks since 2nd dose, C1R-A2402 pre-pulsed with 1 μM peptide
[20] = vaccinated donor V8, 9.860 weeks since 2nd dose, C1R-A2402 pre-pulsed with 1 μM peptide
[21] = vaccinated donor V9, 20.570 weeks since 2nd dose, C1R-A2402 pre-pulsed with 1 μM peptide
[22] = vaccinated donor V10, 2.000 weeks since 2nd dose, C1R-A2402 pre-pulsed with 1 μM peptide
[23] = vaccinated donor V11, 1.430 weeks since 2nd dose, C1R-A2402 pre-pulsed with 1 μM peptide
[24] = vaccinated donor V12, 1.000 weeks since 2nd dose, C1R-A2402 pre-pulsed with 1 μM peptide
[25] = vaccinated donor V13, 9.000 weeks since 2nd dose, C1R-A2402 pre-pulsed with 1 μM peptide
[26] = vaccinated donor V14, 2.000 weeks since 2nd dose, C1R-A2402 pre-pulsed with 1 μM peptide
[27] = vaccinated donor V15, 6.860 weeks since 2nd dose, C1R-A2402 pre-pulsed with 1 μM peptide
[28] = vaccinated donor V16, 8.860 weeks since 2nd dose, C1R-A2402 pre-pulsed with 1 μM peptide
[29] = vaccinated donor V17, 4.140 weeks since 2nd dose, C1R-A2402 pre-pulsed with 1 μM peptide
[30] = vaccinated donor V3, 8.860 weeks since 2nd dose, C1R-A2402 pre-pulsed with 1 μM peptide

Sequence	MFI, HLA-A2402 (APC), representative staining [1, 3]	IFNg-producing cells among CD8 T cells (%) [2, 4]	IFNg-producing cells among CD8 T cells (%) [2, 5]	IFNg-producing cells among CD8 T cells (%) [2, 6]	IFNg-producing cells among CD8 T cells (%) [2, 7]	IFNg-producing cells among CD8 T cells (%) [2, 8]	IFNg-producing cells among CD8 T cells (%) [2, 9]	IFNg-producing cells among CD8 T cells (%) [2, 10]	IFNg-producing cells among CD8 T cells (%) [2, 11]	IFNg-producing cells among CD8 T cells (%) [2, 12]	IFNg-producing cells among CD8 T cells (%) [2, 13]	IFNg-producing cells among CD8 T cells (%) [2, 14]	IFNg-producing cells among CD8 T cells (%) [2, 15]	IFNg-producing cells among CD8 T cells (%) [2, 16]	IFNg-producing cells among CD8 T cells (%) [2, 17]	IFNg-producing cells among CD8 T cells (%) [2, 18]	IFNg-producing cells among CD8 T cells (%) [2, 19]	IFNg-producing cells among CD8 T cells (%) [2, 20]	IFNg-producing cells among CD8 T cells (%) [2, 21]	IFNg-producing cells among CD8 T cells (%) [2, 22]	further results
RFDNPVLPF [S-RF9]	10.5	0.770%	0.050%	1.110%	0.000%	0.000%	0.000%	0.000%	0.000%	0.000%	0.000%	0%	0.296%	0.333%	0.15%	0%	0%	0%	0.769%	0%	binding to HLA-A*24:02 (in words) ([1]; […], 16 peptides tested at 100 μM): did not bind; IFNg-producing cells among CD8 T cells (%) [2, 23]: 0%; IFNg-producing cells among CD8 T cells (%) [2, 24]: 0.495%; IFNg-producing cells among CD8 T cells (%) [2, 25]: 0.076%; IFNg-producing cells among CD8 T cells (%) [2, 26]: 0.633%; IFNg-producing cells among CD8 T cells (%) [2, 27]: 0%; IFNg-producing cells among CD8 T cells (%) [2, 28]: 0.051%; IFNg-producing cells among CD8 T cells (%) [2, 29]: 0%
RVYSTGSNVF [S-RF10]	48.0	1.394%	0.025%	0.000%	0.000%	0.000%	0.000%	0.600%	0.000%	0.420%	0.000%	0%	0%	0.522%	1.045%	0%	0%	0.127%	0%	0.033%	Freq of responder (%) [2]: 5.9%; Resp: number of responders (individuals with epitope-specific CD8+ T cells) [2]: one; IFNg-producing cells among CD8 T cells (%) [2, 30]: 0.19%; IFNg-producing cells among CD8 T cells (%) [2, 23]: 0.679%; IFNg-producing cells among CD8 T cells (%) [2, 24]: 0.143%; IFNg-producing cells among CD8 T cells (%) [2, 25]: 0.275%; IFNg-producing cells among CD8 T cells (%) [2, 26]: 0.249%; IFNg-producing cells among CD8 T cells (%) [2, 27]: 0.267%; IFNg-producing cells among CD8 T cells (%) [2, 28]: 0.199%; IFNg-producing cells among CD8 T cells (%) [2, 29]: 0%
VFKNIDGYF [S-VF9]	38.0	0.300%	0.050%	1.030%	0.000%	0.310%	0.000%	0.370%	0.490%	0.000%	0.000%	0%	0%	0.114%	0.154%	0%	0.163%	0%	0%	0%	IFNg-producing cells among CD8 T cells (%) [2, 30]: 0%; IFNg-producing cells among CD8 T cells (%) [2, 23]: 0%; IFNg-producing cells among CD8 T cells (%) [2, 24]: 0.427%; IFNg-producing cells among CD8 T cells (%) [2, 25]: 0%; IFNg-producing cells among CD8 T cells (%) [2, 26]: 0.009%; IFNg-producing cells among CD8 T cells (%) [2, 27]: 0%; IFNg-producing cells among CD8 T cells (%) [2, 28]: 0.255%; IFNg-producing cells among CD8 T cells (%) [2, 29]: 0.147%
VFVSNGTHWF [S-VFF10]	22.3	0.490%	0.090%	0.710%	0.000%	0.560%	0.000%	0.420%	0.110%	0.000%	0.000%	0%	0%	0.485%	0.489%	0%	0%	0%	3.184%	0%	MFI, HLA-A2402 (APC), representative staining ([1]; Suppl. Fig. 3c (for Fig. 4c), peptide(-) 11.7, 26 °C (Maximum) 28.9): 37.9; Freq of responder (%) [2]: 5.9%; Resp: number of responders (individuals with epitope-specific CD8+ T cells) [2]: one; IFNg-producing cells among CD8 T cells (%) [2, 30]: 0%; IFNg-producing cells among CD8 T cells (%) [2, 23]: 0%; IFNg-producing cells among CD8 T cells (%) [2, 24]: 0.283%; IFNg-producing cells among CD8 T cells (%) [2, 25]: 0.024%; IFNg-producing cells among CD8 T cells (%) [2, 26]: 0%; IFNg-producing cells among CD8 T cells (%) [2, 27]: 0.253%; IFNg-producing cells among CD8 T cells (%) [2, 28]: 0%; IFNg-producing cells among CD8 T cells (%) [2, 29]: 0%
